The record followed here is ChEMBL document CHEMBL1125011, “Potential antimitotic agents. Synthesis of some ethyl benzopyrazin-7-ylcarbamates, ethyl pyrido[3,4-b]pyrazin-7-ylcarbamates, and ethyl pyrido[3,4-e]-as-triazin-7-ylcarbamates” (J Med Chem, 1990).

Assay [1] can be described thus: (§1) Concentration that causes a mitotic index of 0.5 for cultured lymphoid leukemia L1210 cells was determined. The assay is classed as functional, Mus musculus.
The subject of assay [2] is L1210. In words: Concentration required to inhibit 50% proliferation of cultured lymphoid leukemia L1210 cells was measured. The assay is classed as functional, cell-based. Particulars: Mus musculus.
Assay [3] has as its system L1210. The assay is described as §1. The assay is classed as functional, Mus musculus.

In assay [1], `CCOC(=O)Nc1cc2c(c(N)n1)N=C(c1ccccc1)CN2` displayed an MI0.5 of 0.0028 µM.

As to `CCOC(=O)Nc1cc2nnc(-c3ccccc3)nc2c(N)n1`, the IC50 in the assay on L1210 [2] is greater than 10 µM.

Regarding `CCOC(=O)c1cc(N)c2c(c1)NCC(c1ccccc1)=N2`, the MI0.5 in the assay on L1210 [3] is greater than 10 µM. In the assay with L1210 [2], this molecule had a half-inhibitory concentration (IC50) greater than 100 µM.

As for `COC(=O)Nc1cc(N)c2c(c1)NCC(c1ccccc1)=N2`, the IC50 with L1210 [2] was 24 µM. In other words, the double-digit micromolar range.

`COC(=O)Nc1cc(N)c2nc(-c3ccccc3)c(O)nc2c1` had an MI0.5 in assay [1] of 1.9 µM. This molecule also showed an IC50 in the assay with L1210 [2] of 0.75 µM.

Turning to `CCOC(=O)c1cc(N)c2nc(-c3ccccc3)cnc2c1`, the MI0.5 in the assay on L1210 [3] is greater than 10 µM. Further, the IC50 in the assay with L1210 [2] is greater than 100 µM.

With `CCOC(=O)Nc1cc2nc(O)c(-c3ccccc3)nc2c(N)n1`, the MI0.5 in the assay on L1210 [3] worked out at 0.022 µM. In the assay with L1210 [2], this molecule returned an IC50 of 0.042 µM.

In the assay on L1210 [2], `CCOC(=O)Nc1cc2c(c(N)n1)NC(c1ccccc1)=NN2` came in with an IC50 greater than 10 µM.

The molecule `CCOC(=O)Nc1cc2ncc(-c3ccccc3)nc2c(N)n1` displayed an IC50 in the assay with L1210 [2] of 0.3 µM.

`COC(=O)Nc1cc(N)c2nc(-c3ccccc3)cnc2c1` came in with an IC50 with L1210 [2] greater than 100 µM.

For `CCOC(=O)Nc1cc2nc(N)c(-c3ccccc3)nc2c(N)n1`, in the assay on L1210 [2], the IC50 was greater than 30 µM.

As a reminder, the IC50 is the concentration that gives 50% inhibition.
